Biological target: T1, Saposin B (Homo sapiens, UniProt P07602)
T1 sequence (P07602 195-273 limits assumed): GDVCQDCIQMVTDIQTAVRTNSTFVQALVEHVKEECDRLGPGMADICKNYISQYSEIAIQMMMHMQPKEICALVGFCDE
Experiment: fluorescence spectroscopy showing binding of A2E by Saposin B
Conditions: fluorescence spectroscopy graphs (FIG. 1A, FIG. 1B)
Text: FIG. 1A is a first fluorescence spectroscopy graph showing that Saposin B binds A2E;
FIG. 1B is a second fluorescence spectroscopy graphs showing that Saposin B binds A2E;

## CC(C=CC1=C(C)CCCC1(C)C)=CC=CC(C)=Cc1cc(C=CC=C(C)C=CC2=C(C)CCCC2(C)C)cc[n+]1CCO [A2E, N-retinylidene-N-retinylethanolamine]
  binding of A2E by Saposin B: binds

Source: patent US12360121B2, “Assay for detection of an A2E-Saposin B complex” (Syracuse University, priority 2016, dated 2025)
